Assay results as given in ChEMBL document CHEMBL3400074, “Development of 2-amino-5-phenylthiophene-3-carboxamide derivatives as novel inhibitors of Mycobacterium tuberculosis DNA GyrB domain” (Bioorg Med Chem, 2015).
In brackets after ≈: the same amount, converted by molar mass.

Tested on: Mycobacterium tuberculosis
Experiment: Antibacterial activity against multidrug-resistant Mycobacterium tuberculosis H37Rv ATCC 27294 after 28 days by agar dilution method
Format: functional
Details: H37Rv ATCC 27294, 672 h

Question: With NC(=O)c1cc(-c2ccccc2)sc1NC(=S)Nc1ccc(F)cc1 as the compound, how does the MIC read?
Answer: 67.4 µM (≈ 25 µg/mL)

Question: For CCC(=O)Nc1sc(-c2ccccc2)cc1C(N)=O, which MIC is on record?
Answer: 22.8 µM (≈ 6.26 µg/mL)

Question: Cc1ccc(NC(=S)Nc2sc(-c3ccccc3)cc2C(N)=O)cc1 was tested. Which MIC did it give?
Answer: 8.5 µM (≈ 3.12 µg/mL)

Question: NC(=O)c1cc(-c2ccccc2)sc1NC(=S)NCc1ccccc1 was tested. Which MIC did it give?
Answer: 34 µM (≈ 12.5 µg/mL)

Question: For NC(=O)c1cc(-c2ccccc2)sc1NC(=O)c1cc2ccccc2[nH]1, which MIC is on record?
Answer: 34.6 µM (≈ 12.5 µg/mL)

Question: With NC(=O)c1cc(-c2ccccc2)sc1NC(=O)NCc1ccccc1 as the compound, how does the MIC read?
Answer: 18.5 µM (≈ 6.5 µg/mL)

Question: CO[C@H]1/C=C/O[C@@]2(C)Oc3c(C)c(O)c4c(O)c(c(/C=N/N5CCN(C)CC5)c(O)c4c3C2=O)NC(=O)/C(C)=C\C=C\[C@H](C)[C@H](O)[C@@H](C)[C@@H](O)[C@@H](C)[C@H](OC(C)=O)[C@@H]1C [RIFAMPIN] was tested. Which MIC did it give?
Answer: 0.23 µM (≈ 0.189 µg/mL)

Question: How did the MIC turn out when NC(=O)c1cc(-c2ccccc2)sc1NC(=O)Nc1ccccc1 was run?
Answer: 9.27 µM (≈ 3.13 µg/mL)

Question: With NC(=O)c1cc(-c2ccccc2)sc1NC(=O)C1CCCC1 as the compound, how does the MIC read?
Answer: 39.7 µM (≈ 12.5 µg/mL)

Question: How did the MIC turn out when NC(=O)c1cc(-c2ccccc2)sc1NC(=O)Nc1ccc(Br)cc1 was run?
Answer: 15 µM (≈ 6.25 µg/mL)

Question: Which MIC does the source give for CCCC(=O)Nc1sc(-c2ccccc2)cc1C(N)=O here?
Answer: 10.8 µM (≈ 3.13 µg/mL)

Question: With NC(=O)c1cc(-c2ccccc2)sc1NC(=O)Nc1ccc(Cl)cc1 as the compound, how does the MIC read?
Answer: 8.42 µM (≈ 3.13 µg/mL)

Question: With NC(=O)c1cc(-c2ccccc2)sc1NC(=O)C1CCCCC1 as the compound, how does the MIC read?
Answer: 9.48 µM (≈ 3.11 µg/mL)

Question: For CC[C@@H](CO)NCCN[C@@H](CC)CO [ETHAMBUTOL], which MIC is on record?
Answer: 7.64 µM (≈ 1.56 µg/mL)

Question: How did the MIC turn out when CC(C)NC(=O)Nc1sc(-c2ccccc2)cc1C(N)=O was run?
Answer: 10.2 µM (≈ 3.11 µg/mL)

Question: Which MIC does the source give for NC(=O)c1cc(-c2ccccc2)sc1NC(=S)Nc1ccc(Cl)cc1 here?
Answer: 80.7 µM (≈ 31.3 µg/mL)

Question: NC(=O)c1cc(-c2ccccc2)sc1NC(=O)c1ccccc1 was tested. Which MIC did it give?
Answer: 4.84 µM (≈ 1.56 µg/mL)

Question: With NC(=O)c1cc(-c2ccccc2)sc1NC(=O)c1ccc(Oc2ccccc2)cc1 as the compound, how does the MIC read?
Answer: 15.1 µM (≈ 6.25 µg/mL)

Question: For CC(=O)Nc1sc(-c2ccccc2)cc1C(N)=O, which MIC is on record?
Answer: 24 µM (≈ 6.26 µg/mL)

Question: Which MIC does the source give for NC(=O)c1cc(-c2ccccc2)sc1NC(=O)Nc1ccc(F)cc1 here?
Answer: 17.6 µM (≈ 6.25 µg/mL)

Question: NC(=O)c1cc(-c2ccccc2)sc1NC(=S)Nc1ccccc1 was tested. Which MIC did it give?
Answer: 70.8 µM (≈ 25 µg/mL)

Question: NC(=O)c1cc(-c2ccccc2)sc1NC(=S)Nc1ccc(Br)cc1 was tested. Which MIC did it give?
Answer: 18 µM (≈ 7.78 µg/mL)

Question: NNC(=O)c1ccncc1 [ISONIAZID] was tested. Which MIC did it give?
Answer: 0.66 µM (≈ 0.0905 µg/mL)

Question: NC(=O)c1cc(-c2ccccc2)sc1NC(=S)Nc1ccc([N+](=O)[O-])cc1 was tested. Which MIC did it give?
Answer: 78.5 µM (≈ 31.3 µg/mL)

Question: How did the MIC turn out when NC(=O)c1cc(-c2ccccc2)sc1NC(=O)c1cnccn1 was run?
Answer: 38.6 µM (≈ 12.5 µg/mL)

Question: NC(=O)c1cc(-c2ccccc2)sc1NC(=O)c1ccc([N+](=O)[O-])cc1 was tested. Which MIC did it give?
Answer: 8.48 µM (≈ 3.12 µg/mL)

Question: Which MIC does the source give for NC(=O)c1cc(-c2ccccc2)sc1NC(=O)c1cccc2ccccc12 here?
Answer: 25 µM (≈ 9.3 µg/mL)

Question: How did the MIC turn out when NC(=O)c1cc(-c2ccccc2)sc1NC(=O)c1ccc(Cl)cc1 was run?
Answer: 8.76 µM (≈ 3.13 µg/mL)

Question: Cc1ccc(NC(=O)Nc2sc(-c3ccccc3)cc2C(N)=O)cc1 was tested. Which MIC did it give?
Answer: 35.6 µM (≈ 12.5 µg/mL)

Question: How did the MIC turn out when CC(C)NC(=S)Nc1sc(-c2ccccc2)cc1C(N)=O was run?
Answer: 19.6 µM (≈ 6.26 µg/mL)

Question: For NC(=O)c1cc(-c2ccccc2)sc1NC(=O)Nc1ccc([N+](=O)[O-])cc1, which MIC is on record?
Answer: 16.3 µM (≈ 6.24 µg/mL)

Question: CC1COc2c(N3CCN(C)CC3)c(F)cc3c(=O)c(C(=O)O)cn1c23 (configuration not stated) [OFLOXACIN] was tested. Which MIC did it give?
Answer: 2.16 µM (≈ 0.781 µg/mL)
